Measurements: US20250313555A1, “2-SUBSTITUTED THIAZOLE AND BENZOTHIAZOLE COMPOSITIONS AND METHODS AS DUX4 INHIBITORS” (ALTAY THERAPEUTICS, INC., priority 2022, published 2025)

Assays:
Type in all cases: cell-based
[1] = Cell cytotoxicity 50 assay (CC50), MB200 cells, cell titer glo; conditions: human
Procedure: Cell Cytotoxicity 50 Assay Protocol (CC50) MB200 cells were grown until 80% confluent in F10 media supplemented with rhFGF basic (10 ng/ml), 15% fetal bovine serum, 1% penicillin streptomycin, 1% amphotericin B, and 1 μM dexamethasone. Adherent MB200 cells growing on 10 cm plate were then trypsinized with 1 ml of trypsin. Once the cells detached from the plate, F10 media (10 mL) was added, and the cells were strained through a 70 μm cell strainer. The cells were counted using a mixture of 10 μL cell suspension with 10 μL of trypan blue. Once the total number of cells were counted, a dilution of 200 k/mL was prepared, and the cells were seeded with 10 k cells/well in a 96-well plate in triplicate, making sure to avoid seeding cells in the edges of the plate to avoid edge effects. Using a multichannel pipet, the 200 k/mL cell dilution (50 μL/well) was added into wells B2-B11, C2-C11, and D2-D11 in triplicate. Into a deep well block (DWB), the media for the appropriate cell line (450 μL/well) was added into wells 1-10. Into DWB well 2, 10 mM of drug solution (13.5 μL) was added, followed by an additional volume of the medium (225 μL). The well was pipetted up/down four times. A portion (225 μL) was transferred to well 3, and this process was repeated up to well 10. Using a multichannel pipet, a smaller portion (50 μL/well) was removed from all wells in the DWB and then dispensed on top of the cells in each corresponding row. After adding the drug, the plate was incubated at 37° C. for 72 h. Using a multi-channel pipet, pre-warmed cell titer glo reagent (Promega) (100 μL) was added into every well. After 5 minutes, the total luminescence was measured with a luminometer. CC50 was determined with GraphPad prism template.

[2] = Cell cytotoxicity 50 assay (CC50), HEK cells; conditions: human
Procedure: Cell Cytotoxicity 50 Assay Protocol (CC50) Into a deep well block (DWB), the media for the appropriate cell line (450 μL/well) was added into wells 1-10. Into DWB well 2, 10 mM of drug solution (13.5 μL) was added, followed by an additional volume of the medium (225 μL). The well was pipetted up/down four times. A portion (225 μL) was transferred to well 3, and this process was repeated up to well 10. Using a multichannel pipet, a smaller portion (50 μL/well) was removed from all wells in the DWB and then dispensed on top of the cells in each corresponding row. After adding the drug, the plate was incubated at 37° C. for 72 h. Using a multi-channel pipet, pre-warmed cell titer glo reagent (Promega) (100 μL) was added into every well. After 5 minutes, the total luminescence was measured with a luminometer. CC50 was determined with GraphPad prism template.

[3] = test system: MBD3L2 RNA; experiment: RNA isolation and qPCR to determine MBD3L2 RNA levels in FSHD cells; conditions: 48 hrs
Procedure: Protocol for RNA Isolation and qPCR to Determine MBD3L2 RNA Levels The protocol describes the process of isolating RNA from cultured cells, converting the RNA to complementary DNA (cDNA), and measuring target gene expression using a quantitative polymerase chain reaction (qPCR). The seed FSHD cells were dispensed into a six-well dish. One day after seeding, the DUX4 inhibitor (11 μM or 3.6 μM/well) was added to the cells. After another 48 hrs, the old media was removed from the cells. The cells were washed with 2 mL of warm phosphate buffered saline (PBS). The PBS was aspirated, and the cells were lysed in each well with 350 μL of RLT buffer+3.5 μL of beta-mercaptoethanol (BME). The lysates were added to fresh, RNAse-free, labeled Eppendorf tubes. The cells were then physically disrupted for […] at level 4 of the bead disrupter to ensure the release of the RNA. The RNA was collected according to standard procedures (i.e., Qiagen kit instructions) as discussed below. The RNA concentrations were standardized to […]. In a PCR tube, RNA (2 μg) in a new Eppendorf tube was diluted with RNase-free water to a 9.5 μL final volume of […] RNA. DNase was used to remove any DNA contamination. A DNase Master Mix was prepared from 1.5 μL/reaction DNase solution (1 unit/μL, Promega), 3 μL/reaction 5× RT buffer (i.e., 250 mM Tris-HCl (pH 8.3), 375 mM KCl, 15 mM MgCl2, and 500 μl 0.1 M DTT; Promega MMLV), and 1 μL/reaction RNase inhibitor solution (RNasin, 40 units/μL, Promega). The DNase Master Mix was added to the standardized RNA samples (5.5 μL/sample). The samples were mixed by agitation and briefly spun down by centrifuge. The samples were heated to 37° C. for 60 min, 80° C. for 5 min, and then cooled to 4° C. The samples were stored on ice until the addition of the next reagents. An RT Reaction Master Mix was prepared from 5 μL/reaction 5× RT buffer, 2 μL/reaction dNTP solution (2.5 mM in each nucleotide), 1 μL/reaction RNase inhibitor solution (RNasin, 40 units/μL, Promega), 1.6 μL/reaction M-MLV reverse transcriptase (200 units/μL, Promega), and 13.4 μL/reaction deionized, RNase-free water. The RT Reaction Master Mix was cooled on ice until use. A 50 μM solution of Random Primer 6 random hexanucleotides (2 μL) was added to each sample. The samples were mixed by agitation and briefly spun down by centrifuge. The samples were heated to 70° C. for 5 min and then cooled to 4° C. The RT Reaction Master Mix (23 μL) was added to each sample. The samples were mixed by agitation and briefly spun down by centrifuge. To convert the RNA to cDNA, the samples were heated to 42° C. for 60 min, 95° C. for 5 min, and then cooled to 4° C. The cDNA product mixture was diluted 5:1 with deionized water (40 μL+160 μL). The samples were run in triplicate, with a methyl-CpG-binding protein 3-like 2 (MBD3L2) target primer and a eukaryotic translation elongation factor 1-alpha (EEF1A) control primer. An qPCR Master Mix was prepared for each primer and stored on ice (4° C.) until use. The qPCR Master Mix included 10 μL/reaction SYBR Green Mix (2×) (ThermoFisher), 1 μL/reaction of the primer mix (i.e., the MBD3L2 PCR Primer mix or the EEF1A Primer mix), and 4 μL/reaction deionized, RNase-free water. To set up the qPCR plate, 15 μL of the appropriate qPCR Master Mix was added to the appropriate wells for each target/primer. After all the targets/primers have been added to the wells, 5 μL of the sample was added to the corresponding wells so that each well is 20 μL total. The plate was covered with a clear sheet. An qPCR run was set up (QuantStudio 5) with the following cycle: […]

Structure (SMILES): CC(=O)NCCCC(=O)Nc1ccc(C(C)(C)c2nc3ccccc3s2)cc1 [Compound 87]
- CC50 at 72 h [1]: > 10 µM
- CC50 at 72 h [2]: > 10 µM
- qPCR MBD3L2 Inhib at 11 µM [3]: YES

Structure (SMILES): O=C(CCCN1C(=O)CCC1=O)NCc1ccc(-c2nc3ccccc3s2)cc1 [Compound 93]
- CC50 at 72 h [1]: > 10 µM
- CC50 at 72 h [2]: > 10 µM
- qPCR MBD3L2 Inhib at 11 µM [3]: YES

Structure (SMILES): CC(=O)NCCNC(=O)c1ccc(-c2nc3cc(F)ccc3s2)cc1 [Compound 30]
- CC50 at 72 h [1]: > 10 µM
- CC50 at 72 h [2]: > 10 µM
- qPCR MBD3L2 Inhib at 11 µM [3]: YES

Structure (SMILES): O=C(CCCc1cccnc1)Nc1ccc(-c2nc3cc(F)ccc3s2)cc1 [Compound 155]
- CC50 at 72 h [1]: > 10 µM
- CC50 at 72 h [2]: 1 to 10 µM
- qPCR MBD3L2 Inhib at 11 µM [3]: YES

Structure (SMILES): CC(=O)NCCCC(=O)N(C)c1ccc(-c2nc3ccccc3s2)cc1 [Compound 142]
- CC50 at 72 h [1]: > 10 µM
- CC50 at 72 h [2]: > 10 µM
- qPCR MBD3L2 Inhib at 11 µM [3]: YES

Structure (SMILES): CN(C(=O)CCN1C(=O)CCC1=O)c1ccc(-c2nc3ccccc3s2)cc1 [Compound 34]
- CC50 at 72 h [1]: > 10 µM
- CC50 at 72 h [2]: > 10 µM
- qPCR MBD3L2 Inhib at 11 µM [3]: YES

Structure (SMILES): CC(C)C(=O)NCCCC(=O)Nc1ccc(-c2nc3ccccc3s2)cc1 [Compound 31]
- CC50 at 72 h [1]: > 10 µM
- CC50 at 72 h [2]: > 10 µM
- qPCR MBD3L2 Inhib at 11 µM [3]: YES

Structure (SMILES): CC(=O)NCCC(=O)Nc1ccc(-c2nc3cc(F)ccc3s2)cc1 [Compound 44]
- CC50 at 72 h [1]: > 10 µM
- CC50 at 72 h [2]: > 10 µM
- qPCR MBD3L2 Inhib at 11 µM [3]: YES

Structure (SMILES): O=C(Nc1ccc(-c2nc3ccccc3s2)cc1)C1CCC(N2C(=O)CCC2=O)C1 (stereo not drawn) [Compound 94]
- CC50 at 72 h [1]: > 10 µM
- CC50 at 72 h [2]: > 10 µM
- qPCR MBD3L2 Inhib at 11 µM [3]: YES

Structure (SMILES): O=C(CCCN1CCCC1=O)NCc1ccc(-c2nc3ccccc3s2)cc1 [Compound 109]
- CC50 at 72 h [1]: > 10 µM
- CC50 at 72 h [2]: > 10 µM
- qPCR MBD3L2 Inhib at 11 µM [3]: YES

Structure (SMILES): O=C(CCCCN1C(=O)CCC1=O)Nc1ccc(-c2nc3ccccc3s2)o1 [Compound 167]
- CC50 at 72 h [1]: > 10 µM
- CC50 at 72 h [2]: > 10 µM
- qPCR MBD3L2 Inhib at 11 µM [3]: YES

Structure (SMILES): CC(=O)NCC(C)CC(=O)Nc1ccc(-c2nc3ccccc3s2)cc1 (stereo not drawn) [Compound 9]
- CC50 at 72 h [1]: > 10 µM
- CC50 at 72 h [2]: > 10 µM
- qPCR MBD3L2 Inhib at 11 µM [3]: YES

Structure (SMILES): CC(=O)NCCCC(=O)Nc1ccc(-c2nc3ccccc3s2)o1 [Compound 76]
- CC50 at 72 h [1]: > 10 µM
- CC50 at 72 h [2]: > 10 µM
- qPCR MBD3L2 Inhib at 11 µM [3]: YES

Structure (SMILES): O=C(CCCc1cccnc1)Nc1ccc(-c2nc3ccccc3s2)nc1 [Compound 156]
- CC50 at 72 h [1]: > 10 µM
- CC50 at 72 h [2]: > 10 µM
- qPCR MBD3L2 Inhib at 11 µM [3]: YES

Structure (SMILES): CC(=O)NCCCC(=O)Nc1ccc(CCc2nc3ccccc3s2)cc1 [Compound 174]
- CC50 at 72 h [1]: > 10 µM
- CC50 at 72 h [2]: > 10 µM
- qPCR MBD3L2 Inhib at 11 µM [3]: YES

Structure (SMILES): CC(=O)NCCCCC(=O)Nc1ccc(-c2nc3ccccc3s2)cc1 [Compound 73]
- CC50 at 72 h [1]: > 10 µM
- CC50 at 72 h [2]: > 10 µM
- qPCR MBD3L2 Inhib at 11 µM [3]: YES

Structure (SMILES): O=C(CCc1nnc[nH]1)Nc1ccc(-c2nc3ccccc3s2)cc1 [Compound 39]
- CC50 at 72 h [1]: > 10 µM
- CC50 at 72 h [2]: > 10 µM
- qPCR MBD3L2 Inhib at 11 µM [3]: YES

Structure (SMILES): CC(=O)NCCCC(=O)Nc1ccc(-c2nc3ccccc3s2)cn1 [Compound 49]
- CC50 at 72 h [1]: > 10 µM
- CC50 at 72 h [2]: > 10 µM
- qPCR MBD3L2 Inhib at 11 µM [3]: YES

Structure (SMILES): O=C(CCCN1CCCC1=O)Nc1ccc(-c2nc3cc(F)ccc3s2)cc1 [Compound 116]
- CC50 at 72 h [1]: > 10 µM
- CC50 at 72 h [2]: > 10 µM
- qPCR MBD3L2 Inhib at 11 µM [3]: YES

Structure (SMILES): CC(=O)NC1CC(C(=O)Nc2ccc(-c3nc4ccccc4s3)cc2)C1 (stereo not drawn) [Compound 86]
- CC50 at 72 h [1]: > 10 µM
- CC50 at 72 h [2]: > 10 µM
- qPCR MBD3L2 Inhib at 11 µM [3]: YES

Structure (SMILES): Cc1ccc2nc(-c3ccc(NC(=O)CC4CCCC4)cc3)sc2c1 [Compound 16]
- CC50 at 72 h [1]: > 10 µM
- CC50 at 72 h [2]: > 10 µM
- qPCR MBD3L2 Inhib at 11 µM [3]: YES

Structure (SMILES): CC(=O)NCCCC(=O)NCc1ccc(-c2nc3ccccc3s2)cc1 [Compound 105]
- CC50 at 72 h [1]: > 10 µM
- CC50 at 72 h [2]: > 10 µM
- qPCR MBD3L2 Inhib at 11 µM [3]: YES

Structure (SMILES): CN(C(=O)CCCN1C(=O)CCC1=O)c1ccc(-c2nc3ccccc3s2)cc1 [Compound 141]
- CC50 at 72 h [1]: > 10 µM
- CC50 at 72 h [2]: 1 to 10 µM
- qPCR MBD3L2 Inhib at 11 µM [3]: YES

Structure (SMILES): CC(=O)OCCCC(=O)Nc1ccc(-c2nc3ccc(C)cc3s2)cc1 [Compound 36]
- CC50 at 72 h [1]: > 10 µM
- CC50 at 72 h [2]: 1 to 10 µM
- qPCR MBD3L2 Inhib at 11 µM [3]: YES

Structure (SMILES): O=C(CCc1cnc[nH]1)Nc1ccc(-c2nc3ccccc3s2)cc1 [Compound 14]
- CC50 at 72 h [1]: > 10 µM
- CC50 at 72 h [2]: > 10 µM
- qPCR MBD3L2 Inhib at 11 µM [3]: YES

Structure (SMILES): CC(=O)NCCCC(=O)Nc1ccc(-c2nc3ccccc3s2)cc1 [Compound 5]
- CC50 at 72 h [1]: > 10 µM
- CC50 at 72 h [2]: > 10 µM
- qPCR MBD3L2 Inhib at 11 µM [3]: YES
